Like-named read-outs stand apart in the source and are kept apart here.
Experiments:
[1] = tested on: apoptotic cell death initiated by mitochondria; conditions: cell culture, Youdim et al. 2001; Akao et al. 2002; cited from earlier work
patients with PSP = conditions: 1 mg/day
Experimental: A clinical trial is performed according to the following guidelines: [table]

PSP patients [2] = conditions: patient 5, after 6 months of treatment with rasagiline (FIG. 2)
Experimental: (§1) The following clinical factors were analyzed: • 1. Patients and relatives received a protocol to document the frequency of falls. • 2. 12 of the patients were analyzed using posturographic measurements. • 3. Depression was evaluated using clinical criteria (DSM-IV). • 4. Eye movements were orthoptically evaluated (in some cases an electronystagmogram was performed). • 5. Dysarthria was investigated using the Bogenhausener dysarthria scale (BoDys) (ranges from 4=normal until 0=anarthria). • 6. Dysphagia was clinically documented and the introduction of a percutaneous feeding tube (PEG) was recorded. • 7. Incidence of pneumonia was recorded. • 8. Impulse control disorder and hallucinations were recorded. • 9. Possible side effects were recorded. • 10.

[3] = tested on: Bcl-2 and Bcl-xL expression; conditions: parallel to downregulation of pro-apoptotic Bad and Bax; Youdim et al. 2003; cited from earlier work
PSP patients [4] = conditions: for dysphagia, need for a PEG: PSP patients without PEG at initiation, observation phase; for frequency of falls, MW (mean): mean of documented PSP patients, baseline 23.059
Experimental: Eight men and nine women were treated.
as §1

[5] = tested on: animal models of closed head trauma; conditions: global focal ischemia, MPTP-induced neurotoxicity, ALS transgenic model, 6-OHDA model; cited from earlier work
[6] = PSP patients, rasagiline 1 mg/day

**Q.** For `C#CCN[C@@H]1CCc2ccccc21` [rasagiline, R(+)-N-propargyl-1-aminoindan], which “suppression of apoptotic cell death” value [1] is on record?
**A.** potently suppresses apoptotic cell death

**Q.** And the “reduction of the reported deterioration (PSPRS)” value (patients with PSP; 1 year, vs reported mean yearly increase of 9.7)?
**A.** 33%

**Q.** What about the “safety, gait disturbances and postural stability” value (patients with PSP; posturographic measurement) of the same molecule?
**A.** safe and effective in reducing gait disturbances and in enhancing postural stability

**Q.** What about the “posturographic measurement, before vs after treatment” value (PSP patients [2]) of the same molecule?
**A.** shows an improvement

**Q.** And the “expression of anti-apoptotic Bcl-2 and Bcl-xL” value [3]?
**A.** induces increase

**Q.** And the “dysarthria, mean on the BoDys scale” value (PSP patients [4]; 10 patients, during observation time, from a mean of 2.5±0.5, 4=normal, 0=anarthria)?
**A.** 2.7±0.5

**Q.** What about the “deaths during the observation time” value (PSP patients [4]; 17 PSP patients, patients 9 and 4, both after treatment had ended) of the same molecule?
**A.** Two patients died

**Q.** What about the “dysphagia, need for a PEG” value (PSP patients [4]) of the same molecule?
**A.** none of the other patients required a PEG

**Q.** And the “dysphagia, need for a PEG” value (PSP patients [4]; listed as Rasagiline)?
**A.** effective in improving or slowing progression of dysphagia

**Q.** What about the “period of treatment in which the reduction of the frequency of falls mainly took place” value (PSP patients [4]; [6]) of the same molecule?
**A.** ≤ 7 months

**Q.** And the “postural instability / number of falls (in words)” value (PSP patients [4]; [6])?
**A.** improvement in postural instability was evident within the first 7 months

**Q.** And the “postural instability / number of falls (in words)” value (PSP patients [4]; PSP patients, rasagiline 1 mg/day, listed as Rasagiline)?
**A.** effective in reducing the number of falls

**Q.** What about the “frequency of falls, MW (mean)” value (PSP patients [4]; 1 Month of rasagiline 1 mg/day) of the same molecule?
**A.** 19.824 falls/week

**Q.** And the “frequency of falls, MW (mean)” value (PSP patients [4]; 2 Months of rasagiline 1 mg/day)?
**A.** 20.692 falls/week

**Q.** What about the “frequency of falls, MW (mean)” value (PSP patients [4]; 3 Months of rasagiline 1 mg/day) of the same molecule?
**A.** 20.833 falls/week

**Q.** What about the “frequency of falls, MW (mean)” value (PSP patients [4]; 4 Months of rasagiline 1 mg/day) of the same molecule?
**A.** 20.667 falls/week

**Q.** What about the “frequency of falls, MW (mean)” value (PSP patients [4]; 5 Months of rasagiline 1 mg/day) of the same molecule?
**A.** 20.917 falls/week

**Q.** And the “frequency of falls, MW (mean)” value (PSP patients [4]; 6 Months of rasagiline 1 mg/day)?
**A.** 19.923 falls/week

**Q.** What about the “frequency of falls, MW (mean)” value (PSP patients [4]; 7 Months of rasagiline 1 mg/day) of the same molecule?
**A.** 21.917 falls/week

**Q.** And the “frequency of falls, MW (mean)” value (PSP patients [4]; 8 Months of rasagiline 1 mg/day)?
**A.** 23.5 falls/week

**Q.** And the “frequency of falls, MW (mean)” value (PSP patients [4]; 9 Months of rasagiline 1 mg/day)?
**A.** 22.818 falls/week

**Q.** And the “frequency of falls, MW (mean)” value (PSP patients [4]; 10 Months of rasagiline 1 mg/day)?
**A.** 25.1 falls/week

**Q.** What about the “frequency of falls, MW (mean)” value (PSP patients [4]; 11 Months of rasagiline 1 mg/day) of the same molecule?
**A.** 25.889 falls/week

**Q.** What about the “frequency of falls, MW (mean)” value (PSP patients [4]; 12 Months of rasagiline 1 mg/day) of the same molecule?
**A.** 24.6 falls/week

**Q.** What about the impulse control disorder (PSP patients [4]; one patient with impulse control disorder at initiation) of the same molecule?
**A.** not influenced by treatment with rasagiline

**Q.** And the “treating physician's assessment of deaths and intracranial haemorrhage after fall” value (PSP patients [4]; patients 9, 4 and 12)?
**A.** not related to rasagiline

**Q.** What about the “effect on eye movements” value (PSP patients [4]; rasagiline 1 mg/day) of the same molecule?
**A.** No effect

**Q.** And the depression during treatment (PSP patients [4]; rasagiline 1 mg/day, 12 months observation, listed as Rasagiline)?
**A.** effective in reducing or eliminating depression

**Q.** And the “reversibility of side effects after termination” value (PSP patients [4]; three patients with side effects)?
**A.** completely reversible

**Q.** And the neuroprotection [5]?
**A.** Neuroprotection by rasagiline was achieved
